Assay results reported in patent US12458021B2, “Microbiocidal derivatives” (SYNGENTA CROP PROTECTION AG, priority 2019, dated 2025).

Columns and labels:
[1] = system: Glomerella lagenarium (Colletotrichum lagenarium); test: Glomerella lagenarium (Colletotrichum lagenarium) / liquid culture (anthracnose); format: cell-based; details: Colletotrichum orbiculare, PDB potato dextrose broth, 24° C., 3-4 days after application, read-out: control of Glomerella lagenarium (inhibition of growth, photometric)
Method in brief: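 Conidia from cryogenic storage suspended in potato dextrose broth and added to DMSO compound solution in plates. Incubated at 24° C; growth inhibition read photometrically 3-4 days after application.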

[2] = system: Monographella nivalis (Microdochium nivale); test: Monographella nivalis (Microdochium nivale) / liquid culture (foot rot cereals); format: cell-based; details: PDB potato dextrose broth, 24° C., 4-5 days after application, read-out: control of Monographella nivalis (inhibition of growth, photometric)
Method in brief: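 Cryostored M. nivalis conidia mixed into potato dextrose broth and added to 96-well plates holding test compound in DMSO. Incubated at 24° C; growth inhibition read photometrically 4-5 days after application.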

[3] = system: Mycosphaerella arachidis (Cercospora arachidicola); test: Mycosphaerella arachidis (Cercospora arachidicola) / liquid culture (early leaf spot); format: cell-based; details: PDB potato dextrose broth, 24° C., 4-5 days after application, read-out: control of Mycosphaerella arachidis (inhibition of growth, photometric)
Method in brief: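 Conidia from cryogenic storage suspended in potato dextrose broth and added to compound in DMSO. Incubation at 24° C; growth inhibition read photometrically 4-5 days after application.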

Sclerotinia sclerotiorum = Sclerotinia sclerotiorum / liquid culture (cottony rot); format: cell-based; details: PDB potato dextrose broth, mycelia fragments, 24° C., 3-4 days after application, read-out: control of Sclerotinia sclerotiorum (inhibition of growth, photometric)
Method: Example B14: Sclerotinia sclerotiorum/Liquid Culture (Cottony Rot) Mycelia fragments of a newly grown liquid culture of the fungus are directly mixed into nutrient broth (PDB potato dextrose broth). After placing a (DMSO) solution of test compound into a microtiter plate (96-well format) the nutrient broth containing the fungal material is added. The test plates are incubated at 24° C. and the inhibition of growth is determined photometrically 3-4 days after application.

[4] = system: Mycosphaerella graminicola (Septoria tritici); test: Mycosphaerella graminicola (Septoria tritici) / liquid culture (Septoria blotch); format: cell-based; details: Zymoseptoria tritici, PDB potato dextrose broth, 24° C., 4-5 days after application, read-out: control of Mycosphaerella graminicola (inhibition of growth, photometric)
Method in brief: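 Conidia from cryogenic storage were mixed into potato dextrose broth and added to test compound in DMSO. Plates were incubated at 24° C, and growth inhibition was read photometrically 4-5 days after application.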

Alternaria solani = Alternaria solani / tomato / leaf disc (early blight); format: in vivo; details: foliar, tomato leaf disks cv. Baby, inoculated 2 days after application, assessed 5-7 days after application, read-out: control of Alternaria solani (percent disease control compared to untreated)
Method: Example B1: Alternaria solani/Tomato/Leaf Disc (Early Blight) Tomato leaf disks cv. Baby are placed on agar in multiwell plates (24-well format) and sprayed with the formulated test compound diluted in water. The leaf disks are inoculated with a spore suspension of the fungus 2 days after application. The inoculated leaf disks are incubated at 23° C./21° C. […] […]-185.

[5] = system: Blumeria graminis f. sp. tritici (Erysiphe graminis f. sp. tritici); test: Blumeria graminis f. sp. tritici / wheat / leaf disc preventative (powdery mildew on wheat); format: in vivo; details: foliar, wheat leaf segments cv. Kanzler, inoculated 1 day after application, assessed 6-8 days after application, read-out: control of Blumeria graminis f. sp. tritici (percent disease control compared to untreated)
Source text: Example B4: Blumeria graminis f. sp. tritici (Erysiphe graminis f. sp. tritici)/Wheat/Leaf Disc Preventative (Powdery Mildew on Wheat) Wheat leaf segments cv. Kanzler are placed on agar in a multiwell plate (24-well format) and sprayed with the formulated test compound diluted in water. The leaf disks are inoculated by shaking powdery mildew infected plants above the test plates 1 day after application. […] […]-192.

[6] = system: Phaeosphaeria nodorum (Septoria nodorum); test: Phaeosphaeria nodorum (Septoria nodorum) / wheat / leaf disc preventative (glume blotch); format: in vivo; details: Parastagonospora nodorum, foliar, wheat leaf segments cv. Kanzler, inoculated 2 days after application, assessed 5-7 days after application, read-out: control of Phaeosphaeria nodorum (percent disease control compared to untreated)
Method in brief: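 Wheat cv. Kanzler leaf discs on agar were sprayed with formulated compound diluted in water and inoculated with spores 2 days later. Discs were kept at 20° C, 75% rh, 12 h light/dark; percent disease control versus untreated was scored 5-7 days after application.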

[7] = system: Magnaporthe grisea (Pyricularia oryzae); test: whole plant or invertebrate; format: in vivo; details: foliar, read-out: control of Magnaporthe grisea (percent disease control compared to untreated)
Pyrenophora teres = Pyrenophora teres / barley / leaf disc preventative (net blotch); format: in vivo; details: foliar, barley leaf segments cv. Hasso, inoculated 2 days after application, assessed 5-7 days after application, read-out: control of Pyrenophora teres (disease control compared to untreated)
Method in brief: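 Barley cv. Hasso leaf discs on agar were sprayed with diluted formulated compound, then inoculated with spore suspension 2 days later. Incubation at 20 °C, 65% rh, 12 h light/dark; disease control versus untreated assessed 5-7 days after application.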

[8] = system: Puccinia recondita f. sp. tritici; test: Puccinia recondita f. sp. tritici / wheat / leaf disc curative (brown rust); format: in vivo; details: foliar, wheat leaf segments cv. Kanzler, compound applied 1 day after inoculation, assessed 6-8 days after application, read-out: control of Puccinia recondita f. sp. tritici, curative (percent disease control compared to untreated)
Method: Example B10: Puccinia recondita f. sp. tritici/Wheat/Leaf Disc Curative (Brown Rust) Wheat leaf segments cv. Kanzler are placed on agar in multiwell plates (24-well format). The leaf segments are inoculated with a spore suspension of the fungus. Plates are stored in darkness at 19° C. and 75% rh. The formulated test compound diluted in water is applied 1 day after inoculation. […] […]-185.

[9] = system: Puccinia recondita f. sp. tritici; test: Puccinia recondita f. sp. tritici / wheat / leaf disc preventative (brown rust); format: in vivo; details: foliar, wheat leaf segments cv. Kanzler, inoculated 1 day after application, assessed 7-9 days after application, read-out: control of Puccinia recondita f. sp. tritici, preventative (percent disease control compared to untreated)
Method in brief: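 Wheat leaf segments (cv. Kanzler) on agar were sprayed with formulated compound, then inoculated with spores 1 day later. Segments were incubated at 19 °C, 75% rh with 12 h light/dark. Percent disease control versus untreated was scored 7–9 days after application.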

[10] = system: Botryotinia fuckeliana (Botrytis cinerea); test: Botryotinia fuckeliana (Botrytis cinerea) / liquid culture (gray mould); format: cell-based; details: Vogels broth, 24° C., 3-4 days after application, read-out: control of Botryotinia fuckeliana (inhibition of growth, photometric)
Method: Example B2: Botryotinia fuckeliana (Botrytis cinerea)/Liquid Culture (Gray Mould) Conidia of the fungus from cryogenic storage are directly mixed into nutrient broth (Vogels broth). After placing a (DMSO) solution of test compound into a microtiter plate (96-well format), the nutrient broth containing the fungal spores is added. The test plates are incubated at 24° C. and the inhibition of growth is determined photometrically 3-4 days after application. […] […]-190.

CC1(C)CCC1NC(=O)c1nc(Nc2cnsc2)ccc1O (stereo not shown) [Compound P-19, N-(2,2-dimethylcyclobutyl)-3-hydroxy-6-(isothiazol-4-ylamino)pyridine-2-carboxamide]
≥ 80%: inhibition at 20 ppm [1] | inhibition at 20 ppm [2] | inhibition at 20 ppm [3] | inhibition at 20 ppm (Sclerotinia sclerotiorum) | inhibition at 20 ppm [4]

CCOc1ccc(Nc2cc(F)cc(F)c2)nc1C(=O)NC1CCC1(C)C (stereo not shown) [Compound P-44, 6-(3,5-difluoroanilino)-N-(2,2-dimethylcyclobutyl)-3-ethoxy-pyridine-2-carboxamide]
≥ 80%: pest or weed control at 200 ppm (Alternaria solani) | inhibition at 20 ppm [1] | pest or weed control at 200 ppm [5] | pest or weed control at 200 ppm [6] | inhibition at 20 ppm [2] | inhibition at 20 ppm [3] | pest or weed control at 200 ppm [7] | pest or weed control at 200 ppm (Pyrenophora teres) | inhibition at 20 ppm (Sclerotinia sclerotiorum) | inhibition at 20 ppm [4]

COc1ccc(Nc2cc(F)cc(F)c2)nc1C(=O)NCC1(C)CCOC2(CCC2)C1 (stereo not shown) [Compound P-67, 6-(3,5-difluoroanilino)-3-methoxy-N-[(8-methyl-5-oxaspiro[3.5]nonan-8-yl)methyl]pyridine-2-carboxamide]
≥ 80%: pest or weed control at 200 ppm (Alternaria solani) | inhibition at 20 ppm [1] | pest or weed control at 200 ppm [5] | inhibition at 20 ppm [2] | inhibition at 20 ppm [3] | pest or weed control at 200 ppm [7] | inhibition at 20 ppm (Sclerotinia sclerotiorum) | inhibition at 20 ppm [4]

COc1ccc(Nc2cc(F)cc(F)c2)nc1C(=O)NCCc1ccc(OC(F)(F)F)cc1 [Compound P-74, 6-(3,5-difluoroanilino)-3-methoxy-N-[2-[4-(trifluoromethoxy)phenyl]ethyl]pyridine-2-carboxamide]
≥ 80%: pest or weed control at 200 ppm (Alternaria solani) | inhibition at 20 ppm [1] | pest or weed control at 200 ppm [5] | inhibition at 20 ppm [2] | inhibition at 20 ppm [3] | pest or weed control at 200 ppm [7] | inhibition at 20 ppm (Sclerotinia sclerotiorum) | inhibition at 20 ppm [4]

COc1ccc(Nc2cc(F)nc(F)c2)nc1C(=O)NC(C)(C)C [Compound P-91, N-tert-butyl-6-[(2,6-difluoro-4-pyridyl)amino]-3-methoxy-pyridine-2-carboxamide]
≥ 80%: pest or weed control at 200 ppm (Alternaria solani) | inhibition at 20 ppm [1] | pest or weed control at 200 ppm [5] | inhibition at 20 ppm [2] | pest or weed control at 200 ppm [8] | pest or weed control at 200 ppm [9] | pest or weed control at 200 ppm [7] | inhibition at 20 ppm [4]

COc1ccc(Nc2cccc(F)c2)nc1C(=O)NCC(C)(C)C [Compound P-139, N-(2,2-dimethylpropyl)-6-(3-fluoroanilino)-3-methoxy-pyridine-2-carboxamide]
≥ 80%: pest or weed control at 200 ppm (Alternaria solani) | inhibition at 20 ppm [10] | inhibition at 20 ppm [1] | pest or weed control at 200 ppm [5] | pest or weed control at 200 ppm [6] | inhibition at 20 ppm [2] | inhibition at 20 ppm [3] | pest or weed control at 200 ppm [9] | pest or weed control at 200 ppm [7] | pest or weed control at 200 ppm (Pyrenophora teres) | inhibition at 20 ppm (Sclerotinia sclerotiorum) | inhibition at 20 ppm [4]

COc1ccc(Nc2cc(F)c(F)c(F)c2)nc1C(=O)NCC(C)(C)C [Compound P-145, N-(2,2-dimethylpropyl)-3-methoxy-6-(3,4,5-trifluoroanilino)pyridine-2-carboxamide]
≥ 80%: pest or weed control at 200 ppm (Alternaria solani) | inhibition at 20 ppm [10] | inhibition at 20 ppm [1] | pest or weed control at 200 ppm [5] | pest or weed control at 200 ppm [6] | inhibition at 20 ppm [2] | inhibition at 20 ppm [3] | pest or weed control at 200 ppm [9] | pest or weed control at 200 ppm [7] | pest or weed control at 200 ppm (Pyrenophora teres) | inhibition at 20 ppm (Sclerotinia sclerotiorum) | inhibition at 20 ppm [4]

COc1ccc(Nc2cc(F)cc(C#N)c2)nc1C(=O)NC(C)(C)C [Compound P-147, N-tert-butyl-6-(3-cyano-5-fluoro-anilino)-3-methoxy-pyridine-2-carboxamide]
≥ 80%: pest or weed control at 200 ppm (Alternaria solani) | inhibition at 20 ppm [1] | pest or weed control at 200 ppm [5] | inhibition at 20 ppm [2] | pest or weed control at 200 ppm [9] | pest or weed control at 200 ppm [7] | pest or weed control at 200 ppm (Pyrenophora teres) | inhibition at 20 ppm (Sclerotinia sclerotiorum) | inhibition at 20 ppm [4]

COc1ccc(Nc2cc(F)cc(Cl)c2)nc1C(=O)NC(C)(C)C [Compound P-152, N-tert-butyl-6-(3-chloro-5-fluoro-anilino)-3-methoxy-pyridine-2-carboxamide]
≥ 80%: pest or weed control at 200 ppm (Alternaria solani) | inhibition at 20 ppm [10] | inhibition at 20 ppm [1] | pest or weed control at 200 ppm [5] | pest or weed control at 200 ppm [6] | inhibition at 20 ppm [2] | inhibition at 20 ppm [3] | pest or weed control at 200 ppm [9] | pest or weed control at 200 ppm [7] | pest or weed control at 200 ppm (Pyrenophora teres) | inhibition at 20 ppm (Sclerotinia sclerotiorum) | inhibition at 20 ppm [4]

COc1ccc(Nc2ccnc(F)c2)nc1C(=O)NC(C)(C)C [Compound P-156, N-tert-butyl-6-[(2-fluoro-4-pyridyl)amino]-3-methoxy-pyridine-2-carboxamide]
≥ 80%: inhibition at 20 ppm [1] | pest or weed control at 200 ppm [5] | pest or weed control at 200 ppm [8] | pest or weed control at 200 ppm [9] | pest or weed control at 200 ppm [7]

COc1ccc(Nc2cc(F)cc(F)c2)nc1C(=O)NC1(C(C)(C)C)CCC1 [Compound P-180, N-(1-tert-butylcyclobutyl)-6-(3,5-difluoroanilino)-3-methoxy-pyridine-2-carboxamide]
≥ 80%: pest or weed control at 200 ppm (Alternaria solani) | inhibition at 20 ppm [1] | pest or weed control at 200 ppm [5] | pest or weed control at 200 ppm [6] | inhibition at 20 ppm [2] | inhibition at 20 ppm [3] | pest or weed control at 200 ppm [9] | pest or weed control at 200 ppm [7] | pest or weed control at 200 ppm (Pyrenophora teres) | inhibition at 20 ppm (Sclerotinia sclerotiorum) | inhibition at 20 ppm [4]
